Tests used:
[1] = Hygroscopicity by dynamic vapor sorption (DVS); format: physicochemical; conditions: 80% RH/25° C.
Experimental: Instrument model: SMS DVS Intrinsic Plus dynamic steam adsorption instrument.
Test condition: a sample (10-20 mg) is taken and placed in a DVS sample tray for testing.
Detailed DVS parameters are as follows:
Balance: dm/dt=0.002%/min (minimum: 10 min, and maximum: 180 min).
Drying: it is dried at 0% relative humidity (RH) until dm/dt≤0.002%/min or maximum 180 min.
RH (%) test step range: 0%-95%-0%.
SMS DVS Intrinsic Plus dynamic steam adsorption instrument.
A sample (10-20 mg) was taken and placed in a DVS sample tray for testing.

[2] = Solid stability test of crystal form (XRPD); format: physicochemical; conditions: influencing factors and accelerated conditions
Experimental: According to the “Guiding Principles for Stability Test of Raw Materials and Preparations” (General Rule 9001 of Part Four of the Chinese Pharmacopoeia 2015 Edition), the stability of the crystal form A of the compound in Formula (I) was investigated under influencing factors ((high temperature (60° C., open), high humidity (room temperature/relative humidity 92.5%, open), strong light (visible light intensity of 5000 lux and ultraviolet intensity of […], open), and accelerated conditions (40° C./75% RH, open) and (60° C./75% RH, open)).
About 20 mg of the crystal form A of the compound in Formula (I) was weighed respectively, and it was placed at the bottom of a glass sample bottle, and spread into a thin layer. Its sample was completely exposed for sampling. The samples placed under different conditions were sampled for testing (XRPD) on day 5, day 10, 1 month, 2 months, and 3 months.

EGFR = EGFR (Homo sapiens (Human), UniProt P00533); test: EGFR kinase test (33P-ATP filter binding); format: biochemical
EGFR, sequence (P00533 25-1210): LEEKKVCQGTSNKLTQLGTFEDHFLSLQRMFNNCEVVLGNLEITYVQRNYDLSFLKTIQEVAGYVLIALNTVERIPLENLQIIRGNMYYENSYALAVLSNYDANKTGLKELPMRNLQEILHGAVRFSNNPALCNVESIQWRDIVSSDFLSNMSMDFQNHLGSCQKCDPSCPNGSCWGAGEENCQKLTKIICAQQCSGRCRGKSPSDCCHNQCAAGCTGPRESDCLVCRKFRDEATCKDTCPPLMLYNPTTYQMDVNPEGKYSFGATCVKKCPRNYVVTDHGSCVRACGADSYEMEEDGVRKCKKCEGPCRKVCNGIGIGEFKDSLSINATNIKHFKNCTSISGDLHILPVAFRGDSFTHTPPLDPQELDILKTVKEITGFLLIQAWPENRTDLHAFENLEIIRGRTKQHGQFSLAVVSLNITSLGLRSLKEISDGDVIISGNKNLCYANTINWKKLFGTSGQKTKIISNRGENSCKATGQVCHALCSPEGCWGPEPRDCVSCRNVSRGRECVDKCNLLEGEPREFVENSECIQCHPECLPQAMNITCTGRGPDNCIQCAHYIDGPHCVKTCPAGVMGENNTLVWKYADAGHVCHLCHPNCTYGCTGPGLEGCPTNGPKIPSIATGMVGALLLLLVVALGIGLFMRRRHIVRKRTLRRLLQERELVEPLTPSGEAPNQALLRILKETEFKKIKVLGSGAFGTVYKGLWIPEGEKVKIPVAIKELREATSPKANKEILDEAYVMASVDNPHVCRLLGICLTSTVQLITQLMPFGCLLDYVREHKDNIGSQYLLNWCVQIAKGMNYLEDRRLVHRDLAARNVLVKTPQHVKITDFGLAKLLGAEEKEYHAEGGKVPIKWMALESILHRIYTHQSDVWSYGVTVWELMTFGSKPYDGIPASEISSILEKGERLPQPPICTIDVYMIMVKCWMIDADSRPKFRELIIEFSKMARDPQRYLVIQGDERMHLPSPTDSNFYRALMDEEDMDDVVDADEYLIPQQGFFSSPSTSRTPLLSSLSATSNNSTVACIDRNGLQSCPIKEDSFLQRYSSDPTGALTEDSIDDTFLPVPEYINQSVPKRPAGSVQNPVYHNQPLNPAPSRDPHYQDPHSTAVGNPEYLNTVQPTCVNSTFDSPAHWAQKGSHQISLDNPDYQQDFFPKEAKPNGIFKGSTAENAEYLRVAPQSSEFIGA
Experimental: (§1) Experimental example 1: EGFR, ITK, TEC, and BTK kinase'test.
(§2) Buffer condition: 20 mM HEPES(pH 7.5), 10 mM MgCl2, 1 mM EGTA, 0.02% Brij35, 0.02 mg/mL BSA, 0.1 mm Na3VO4, 2 mm; DTT, 1% DMSO.
(§3) 2.1. An indicator substrate was prepared in a reaction buffer prepared newly.
(§4) 2.2. A cofactor required was transferred to the substrate solution above.
(§5) 2.3. A kinase indicated was injected into the substrate solution and mixed gently.
(§6) 2.4. An acoustic technology was used to convey a compound in DMSO to a kinase reaction mixture (Echo550).
(§7) 2.5. ^33P-ATP (specific activity 0.01 μci/μL, finally) was fed into the reaction mixture to initiate a reaction. (ATP final concentrations were 2 μM, 5 μM, and 5 μM respectively).
(§8) 2.6. The kinase reaction was incubated at room temperature for 120 min.
(§9) 2.7. The reaction was recorded on P81 ion exchange paper (Whatman #3698-915).
(§10) 2.8. 0.75% phosphoric acid was widely used to clean a filter.
(§11) 2.9. The remaining radioactive phosphorylation substrate on filter paper was measured.
(§12) 3. Data analysis: the kinase activity data was expressed as a percentage of the remaining kinase activity in the test sample compared to the carrier (dimethyl sulfoxide) reaction. The IC50 value and curve fitting were obtained by using Prism4 software (GraphPad).

ITK = ITK (Homo sapiens (Human), UniProt Q08881); test: ITK kinase test (33P-ATP filter binding); format: biochemical
ITK, sequence (Q08881 whole entry): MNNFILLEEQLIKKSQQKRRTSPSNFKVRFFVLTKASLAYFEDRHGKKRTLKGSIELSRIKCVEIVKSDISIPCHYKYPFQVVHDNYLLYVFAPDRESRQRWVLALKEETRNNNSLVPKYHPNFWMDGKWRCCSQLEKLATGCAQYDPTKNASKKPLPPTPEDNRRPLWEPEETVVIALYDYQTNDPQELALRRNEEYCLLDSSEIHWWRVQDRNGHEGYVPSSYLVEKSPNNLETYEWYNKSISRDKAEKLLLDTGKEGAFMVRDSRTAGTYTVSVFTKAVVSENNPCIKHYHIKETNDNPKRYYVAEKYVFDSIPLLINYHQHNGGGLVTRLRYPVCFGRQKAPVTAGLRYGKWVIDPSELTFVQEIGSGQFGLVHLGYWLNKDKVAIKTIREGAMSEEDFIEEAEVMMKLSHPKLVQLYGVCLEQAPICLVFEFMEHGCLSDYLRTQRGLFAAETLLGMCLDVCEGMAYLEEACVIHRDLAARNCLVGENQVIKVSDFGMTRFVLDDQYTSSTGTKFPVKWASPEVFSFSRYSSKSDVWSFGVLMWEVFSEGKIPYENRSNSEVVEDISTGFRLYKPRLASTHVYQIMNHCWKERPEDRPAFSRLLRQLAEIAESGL
Experimental: as §1, §2, §3, §4, §5, §6, §7, §8, §9, §10, §11, §12

TEC = TEC (Homo sapiens (Human), UniProt P42680); test: TEC kinase test (33P-ATP filter binding); format: biochemical
TEC, sequence (P42680 whole entry): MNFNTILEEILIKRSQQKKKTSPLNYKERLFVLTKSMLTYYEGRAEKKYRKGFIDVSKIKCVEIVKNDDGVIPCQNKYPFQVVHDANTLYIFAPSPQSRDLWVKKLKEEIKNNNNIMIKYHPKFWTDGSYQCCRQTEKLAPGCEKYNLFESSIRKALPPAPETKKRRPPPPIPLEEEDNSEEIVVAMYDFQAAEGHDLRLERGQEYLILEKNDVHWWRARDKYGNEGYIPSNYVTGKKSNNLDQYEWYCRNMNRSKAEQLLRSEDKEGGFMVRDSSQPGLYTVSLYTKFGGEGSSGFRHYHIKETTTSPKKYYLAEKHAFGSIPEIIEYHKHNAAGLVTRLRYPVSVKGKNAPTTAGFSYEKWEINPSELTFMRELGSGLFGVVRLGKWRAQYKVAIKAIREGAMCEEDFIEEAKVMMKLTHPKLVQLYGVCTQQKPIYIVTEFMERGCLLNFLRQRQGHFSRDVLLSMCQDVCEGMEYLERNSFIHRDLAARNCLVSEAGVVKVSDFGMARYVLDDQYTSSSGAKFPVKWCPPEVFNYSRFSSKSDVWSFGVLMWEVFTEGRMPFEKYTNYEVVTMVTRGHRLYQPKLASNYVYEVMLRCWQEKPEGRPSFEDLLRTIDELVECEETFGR
Experimental: as §1, §2, §3, §4, §5, §6, §7, §8, §9, §10, §11, §12

BTK = BTK (Homo sapiens (Human), UniProt Q06187); test: BTK kinase test (33P-ATP filter binding); format: biochemical; conditions: 120 min at room temperature
BTK, sequence (Q06187 whole entry): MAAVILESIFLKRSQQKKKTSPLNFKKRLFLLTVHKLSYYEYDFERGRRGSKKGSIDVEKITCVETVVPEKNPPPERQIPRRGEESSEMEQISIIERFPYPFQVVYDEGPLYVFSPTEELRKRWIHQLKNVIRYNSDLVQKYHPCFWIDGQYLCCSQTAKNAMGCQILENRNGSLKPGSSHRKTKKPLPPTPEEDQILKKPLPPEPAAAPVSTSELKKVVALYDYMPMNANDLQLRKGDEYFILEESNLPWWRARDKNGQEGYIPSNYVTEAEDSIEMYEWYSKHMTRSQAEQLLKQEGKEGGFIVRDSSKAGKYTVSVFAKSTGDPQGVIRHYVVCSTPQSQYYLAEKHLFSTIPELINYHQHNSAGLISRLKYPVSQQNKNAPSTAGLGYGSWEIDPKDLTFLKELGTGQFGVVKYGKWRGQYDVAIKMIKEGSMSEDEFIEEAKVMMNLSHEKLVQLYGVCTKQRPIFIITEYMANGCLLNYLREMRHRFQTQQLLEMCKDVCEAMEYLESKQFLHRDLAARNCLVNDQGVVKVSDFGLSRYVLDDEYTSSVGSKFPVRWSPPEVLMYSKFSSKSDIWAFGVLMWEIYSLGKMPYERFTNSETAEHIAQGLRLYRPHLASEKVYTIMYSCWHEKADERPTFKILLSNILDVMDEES
Experimental: as §1, §2, §3, §4, §5, §6, §7, §8, §9, §10, §11, §12

[3] = 33P-ATP, 120 min at room temperature

Structure (SMILES)	Hygroscopic classification [1]	ΔW, hygroscopic weight increase [1]	Solid stability, conclusion in words [2]	IC50 (EGFR; [3])	EGFR, ITK, TEC, and BTK activity ratio: EGFR to BTK (EGFR; IC50 EGFR / IC50 BTK)	IC50 (ITK; [3])	EGFR, ITK, TEC, and BTK activity ratio: ITK to BTK (ITK; IC50 ITK / IC50 BTK)	IC50 (TEC; [3])	EGFR, ITK, TEC, and BTK activity ratio: TEC to BTK (TEC; IC50 TEC / IC50 BTK)	IC50 (BTK)
C=CC(=O)N1CCC[C@@H](c2nn(-c3ccc(Oc4cccc(F)c4F)cc3)c3cncc(F)c23)C1	slight hygroscopicity	0.23%	good stability	–	–	–	–	–	–	–
C=CC(=O)N1CCC[C@H](c2nn(-c3ccc(Oc4cccc(F)c4F)cc3)c3cncc(F)c23)C1 (single isomer, unassigned) [Compound 1B]	–	–	–	0.829 µM	383 times,	5.43 µM	2513 times,	0.0748 µM	34 times	0.00216 µM

Reference: patent US20240182466A1, “A Crystal Form of a Fluorine-substituted Pyridopyrazole Compound and a Preparation Method Thereof” (JUMBO DRUG BANK CO., LTD, priority 2021, published 2024)
